For assay [1], the system named is AMARE. The experiment in a line: greenhouse experiment, pre-emergence treatment. Format: in vivo, Amaranthus retroflexus. As to conditions: pre-emergence method, application rate 1000 g/ha, scale from 0 to 100. An excerpt:
(§1) The culture containers used were plastic flowerpots containing loamy sand with approximately 3.0% of humus as the substrate. The seeds of the test plants were sown separately for each species.
(§2) For the pre-emergence treatment, the active ingredients, which had been suspended or emulsified in water, were applied directly after sowing by means of finely distributing nozzles.
(§3) The containers were irrigated gently to promote germination and growth and subsequently covered with transparent plastic hoods until the plants had rooted. This cover caused uniform germination of the test plants, unless this had been impaired by the active ingredients.
(§4) Depending on the species, the plants were kept at 10-25° C. or 20-35° C., respectively.
(§5) The test period extended over 2 to 4 weeks. During this time, the plants were tended, and their response to the individual treatments was evaluated.
(§6) Evaluation was carried out using a scale from 0 to 100. 100 means no emergence of the plants, or complete destruction of at least the aerial moieties, and 0 means no damage, or normal course of growth. A good herbicidal activity is given at values of at least 70 and a very good herbicidal activity is given at values of at least 85.
(§7) The plants used in the greenhouse experiments were of the following species: […]

The test system of assay [2] is APESV. The assay can be described thus: greenhouse experiment, pre-emergence treatment. Format: in vivo, Apera spica-venti. As to conditions: pre-emergence method, application rate 1000 g/ha, scale from 0 to 100.
From the text: as §1, §2, §3, §4, §5, §6, §7

Assay [3] concerns ALOMY. The assay can be described thus: greenhouse experiment, post-emergence treatment. Format: in vivo, Alopecurus myosuroides. As to conditions: post-emergence method, application rate 1000 g/ha, scale from 0 to 100.
From the text: as §1
(§8) For the post-emergence treatment, the test plants were first grown to a height of 3 to 15 cm, depending on the plant habit, and only then treated with the active ingredients which had been suspended or emulsified in water. For this purpose, the test plants were either sown directly and grown in the same containers, or they were first grown separately as seedlings and transplanted into the test containers a few days prior to treatment.
as §4, §5, §6, §7

Assay [4] concerns ECHCG. The experiment in a line: greenhouse experiment, pre-emergence treatment. Format: in vivo, Echinocloa crus-galli. Particulars: pre-emergence method, application rate 1000 g/ha, scale from 0 to 100.
From the text: as §1, §2, §3, §4, §5, §6, §7

In assay [5] the test system is AMARE. The experiment in a line: greenhouse experiment, post-emergence treatment. As to conditions: post-emergence method, application rate 1000 g/ha, scale from 0 to 100. Format: in vivo, Amaranthus retroflexus.
From the text: as §1, §8, §4, §5, §6, §7

Assay [6] concerns AVEFA. The assay can be described thus: greenhouse experiment, post-emergence treatment. Format: in vivo, Avena fatua. As to conditions: post-emergence method, application rate 1000 g/ha, scale from 0 to 100.
From the text: as §1, §8, §4, §5, §6, §7

Assay [7] deals with SETFA. The experiment in a line: greenhouse experiment, pre-emergence treatment. Format: in vivo, Setaria faberi Herrm. Particulars: pre-emergence method, application rate 1000 g/ha, scale from 0 to 100.
From the text: as §1, §2, §3, §4, §5, §6, §7

As for `O=C(O)c1nc(C2CC2)ncc1-c1cccc2c1OCO2` [example 6], the “herbicidal activity against AMARE” value in assay [1] and in assay [5] was “very good (a very good herbicidal activity is given at values of at least 85)” throughout. Moreover, the “herbicidal activity against APESV” value in assay [2] is recorded as “very good (a very good herbicidal activity is given at values of at least 85)”. Further, the “herbicidal activity against ALOMY” value in assay [3] is on record as “very good (a very good herbicidal activity is given at values of at least 85)”. Further, the “herbicidal activity against ECHCG” value in assay [4] is reported as “very good (a very good herbicidal activity is given at values of at least 85)”.
For `O=C(O)c1nc(C2CC2)ncc1-c1c(Cl)ccc2c1OCO2` [example 14], in assay [2], the “herbicidal activity against APESV” value is recorded as “very good (a very good herbicidal activity is given at values of at least 85)”. The “herbicidal activity against AVEFA” value in assay [6] was “good (A good herbicidal activity is given at values of at least 70)”. Also, the “herbicidal activity against ALOMY” value in assay [3] is recorded as “good (A good herbicidal activity is given at values of at least 70)”. For the same compound, the “herbicidal activity against ECHCG” value in assay [4] is recorded as “very good (a very good herbicidal activity is given at values of at least 85)”.
Consider `COC(=O)c1nc(C2CC2)ncc1-c1ccc2ccccc2c1Cl` [example 26], for which, in assay [7], the “herbicidal activity against SETFA” value was “very good (a very good herbicidal activity is given at values of at least 85)”.

These data come from patent publication US20190161451A1, “HERBICIDAL PYRIMIDINE COMPOUNDS” (BASF SE, priority 2016, published 2019).
